Data set [1] can be described thus: Two-fold Williamson etherification: 3,3'-bis(4-hydroxyaryl)-BINOL-MOM diol (Me/H/iPr-2) + oligoethylene glycol bistosylate (1 equiv), Cs2CO3 (ca. 2-2.5 equiv); ring closure = phenoxide O-alkylation by tosylate. As to conditions: the molecule shown is the open-chain precursor, MeCN, 1.0 mM, 85.0 °C.
Data set [2] is described as follows: Two-fold Williamson etherification: BINOL bis(chloroethoxyethyl ether) (Me/H/iPr-6_2) + BINOL bisphenol (Me/H/iPr-2), 1:1, Cs2CO3 (3.2 equiv); ring closure = phenoxide O-alkylation by alkyl chloride. As to conditions: the molecule shown is the open-chain precursor; 42-membered ring; MeCN; 9.0 mM; 85.0 °C; 6.0 h.

Consider `COCOc1c(-c2cc(C(C)C)c(O)c(C(C)C)c2)cc2ccccc2c1-c1c(OCOC)c(-c2cc(C(C)C)c(OCCOCCOCCOCCOCCOCCOCCOS(=O)(=O)c3ccc(C)cc3)c(C(C)C)c2)cc2ccccc12` [iPr-M1_7], for which the ring closure, isolated yield in data set [1] (36-membered ring) is 45.5%.
For the molecule `COCOc1c(-c2ccc(O)cc2)cc2ccccc2c1-c1c(OCOC)c(-c2ccc(OCCOCCOCCOCCOCCOCCOCCOCCOS(=O)(=O)c3ccc(C)cc3)cc2)cc2ccccc12` [H-M1_8], the ring closure, isolated yield in data set [1] (39-membered ring) came to 40.3%.
Take `COCOc1c(-c2cc(C(C)C)c(O)c(C(C)C)c2)cc2ccccc2c1-c1c(OCOC)c(-c2cc(C(C)C)c(OCCOCCOCCOCCOCCOCCOS(=O)(=O)c3ccc(C)cc3)c(C(C)C)c2)cc2ccccc12` [iPr-M1_6]: the ring closure, isolated yield in data set [1] (33-membered ring) worked out at 41.2%.
For `COCOc1c(-c2cc(C)c(O)c(C)c2)cc2ccccc2c1-c1c(OCOC)c(-c2cc(C)c(OCCOCCOc3c(C)cc(-c4cc5ccccc5c(-c5c(OCOC)c(-c6cc(C)c(OCCOCCCl)c(C)c6)cc6ccccc56)c4OCOC)cc3C)c(C)c2)cc2ccccc12` [Me-M2_2], the ring closure, isolated yield in data set [2] was 59.4%.
With `COCOc1c(-c2ccc(O)cc2)cc2ccccc2c1-c1c(OCOC)c(-c2ccc(OCCOCCOCCOCCOCCOCCOS(=O)(=O)c3ccc(C)cc3)cc2)cc2ccccc12` [H-M1_6], the ring closure, isolated yield in data set [1] (33-membered ring) came to 29.7%.
Regarding `COCOc1c(-c2cc(C(C)C)c(O)c(C(C)C)c2)cc2ccccc2c1-c1c(OCOC)c(-c2cc(C(C)C)c(OCCOCCOc3c(C(C)C)cc(-c4cc5ccccc5c(-c5c(OCOC)c(-c6cc(C(C)C)c(OCCOCCCl)c(C(C)C)c6)cc6ccccc56)c4OCOC)cc3C(C)C)c(C(C)C)c2)cc2ccccc12` [iPr-M2_2], the ring closure, isolated yield in data set [2] came out at 76.5%.
Still for that read-out and setting: next, `COCOc1c(-c2ccc(OCCOCCCl)cc2)cc2ccccc2c1-c1c(OCOC)c(-c2ccc(OCCOCCOc3c(C(C)C)cc(-c4cc5ccccc5c(-c5c(OCOC)c(-c6cc(C(C)C)c(O)c(C(C)C)c6)cc6ccccc56)c4OCOC)cc3C(C)C)cc2)cc2ccccc12` [(R,S)-HiPr-M2_2 ((R)-H unit, (S)-iPr unit)]: 48.9%.
Turning to `COCOc1c(-c2ccc(O)cc2)cc2ccccc2c1-c1c(OCOC)c(-c2ccc(OCCOCCOCCOCCOCCOCCOCCOS(=O)(=O)c3ccc(C)cc3)cc2)cc2ccccc12` [H-M1_7], the ring closure, isolated yield in data set [1] (36-membered ring) stood at 32.1%.
Take `COCOc1c(-c2cc(C(C)C)c(O)c(C(C)C)c2)cc2ccccc2c1-c1c(OCOC)c(-c2cc(C(C)C)c(OCCOCCOCCOCCOCCOCCOCCOCCOS(=O)(=O)c3ccc(C)cc3)c(C(C)C)c2)cc2ccccc12` [iPr-M1_8]: the ring closure, isolated yield in data set [1] (39-membered ring) was 53.3%.
Regarding `COCOc1c(-c2cc(C)c(O)c(C)c2)cc2ccccc2c1-c1c(OCOC)c(-c2cc(C)c(OCCOCCOCCOCCOCCOS(=O)(=O)c3ccc(C)cc3)c(C)c2)cc2ccccc12` [Me-M1_5], the ring closure, isolated yield in data set [1] (30-membered ring) came to 21.1%.
For the molecule `COCOc1c(-c2cc(C)c(O)c(C)c2)cc2ccccc2c1-c1c(OCOC)c(-c2cc(C)c(OCCOCCOCCOCCOCCOCCOCCOCCOS(=O)(=O)c3ccc(C)cc3)c(C)c2)cc2ccccc12` [Me-M1_8], the ring closure, isolated yield in data set [1] (39-membered ring) came out at 38.2%.
`COCOc1c(-c2ccc(O)cc2)cc2ccccc2c1-c1c(OCOC)c(-c2ccc(OCCOCCOc3ccc(-c4cc5ccccc5c(-c5c(OCOC)c(-c6ccc(OCCOCCCl)cc6)cc6ccccc56)c4OCOC)cc3)cc2)cc2ccccc12` [H-M2_2]: the ring closure, isolated yield in data set [2] was 77.8%.
On to `COCOc1c(-c2cc(C(C)C)c(O)c(C(C)C)c2)cc2ccccc2c1-c1c(OCOC)c(-c2cc(C(C)C)c(OCCOCCOCCOCCOCCOS(=O)(=O)c3ccc(C)cc3)c(C(C)C)c2)cc2ccccc12` [iPr-M1_5], for which the ring closure, isolated yield in data set [1] (30-membered ring) was 19.6%.
For the molecule `COCOc1c(-c2cc(C)c(O)c(C)c2)cc2ccccc2c1-c1c(OCOC)c(-c2cc(C)c(OCCOCCOCCOCCOCCOCCOCCOS(=O)(=O)c3ccc(C)cc3)c(C)c2)cc2ccccc12` [Me-M1_7], the ring closure, isolated yield in data set [1] (36-membered ring) was 75%.
As to `COCOc1c(-c2ccc(O)cc2)cc2ccccc2c1-c1c(OCOC)c(-c2ccc(OCCOCCOCCOCCOCCOS(=O)(=O)c3ccc(C)cc3)cc2)cc2ccccc12` [H-M1_5], in data set [1] (30-membered ring), the ring closure, isolated yield came out at 11%.
On to `COCOc1c(-c2cc(C)c(O)c(C)c2)cc2ccccc2c1-c1c(OCOC)c(-c2cc(C)c(OCCOCCOCCOCCOCCOCCOS(=O)(=O)c3ccc(C)cc3)c(C)c2)cc2ccccc12` [Me-M1_6], for which the ring closure, isolated yield in data set [1] (33-membered ring) was found to be 53.7%.
On to `COCOc1c(-c2ccc(OCCOCCCl)cc2)cc2ccccc2c1-c1c(OCOC)c(-c2ccc(OCCOCCOc3c(C(C)C)cc(-c4cc5ccccc5c(-c5c(OCOC)c(-c6cc(C(C)C)c(O)c(C(C)C)c6)cc6ccccc56)c4OCOC)cc3C(C)C)cc2)cc2ccccc12` [(S,S)-HiPr-M2_2], for which the ring closure, isolated yield in data set [2] came to 72.7%.

(Values after article PMC12415923.)
